Laboratory results taken from article PMC5218480 (PLoS ONE, 2017).

System: MV-4-11 cells
Experiment: Gene expression microarray analysis (Affymetrix PrimeView) and GSEA
Format: cell-based, human
Parameters: RFU PODN (11730768_x_at) / Fold change /veh PODN (11730768_x_at) / RFU LINC00158 (11744669_a_at) / Fold change /veh LINC00158 (11744669_a_at) / RFU DUSP10 (11751237_a_at) / Fold change /veh DUSP10 (11751237_a_at) / RFU ID3 (11757404_x_at) / Fold change /veh ID3 (11757404_x_at) / RFU PLEKHG5 (11737974_s_at) / Fold change /veh PLEKHG5 (11737974_s_at) / RFU LRRC4B (11730491_at) / Fold change /veh LRRC4B (11730491_at) / RFU GIMAP4 (11747438_a_at) / Fold change /veh GIMAP4 (11747438_a_at) / RFU KRT8 (11758183_x_at) / Fold change /veh KRT8 (11758183_x_at) / RFU CNN1 (11734310_a_at) / Fold change /veh CNN1 (11734310_a_at) / RFU VPS37D (11726825_at) / Fold change /veh VPS37D (11726825_at) / RFU C10orf10 (11716522_x_at) / Fold change /veh C10orf10 (11716522_x_at) / RFU KIR2DL2 /// KIR2DL4 /// KIR2DL5A /// KIR2DL5B /// KIR2DS1 /// KIR2DS2 /// KIR2DS3 /// KIR2DS4 /// KIR3DL3 /// KIR3DL3 /// KIR3DS1 (11738374_at) / Fold change /veh KIR2DL2 /// KIR2DL4 /// KIR2DL5A /// KIR2DL5B /// KIR2DS1 /// KIR2DS2 /// KIR2DS3 /// KIR2DS4 /// KIR3DL3 /// KIR3DL3 /// KIR3DS1 (11738374_at) / RFU C1QL1 (11718748_at) / Fold change /veh C1QL1 (11718748_at) / RFU TMPRSS4 (11747572_a_at) / Fold change /veh TMPRSS4 (11747572_a_at) / RFU HAMP (11756126_x_at) / Fold change /veh HAMP (11756126_x_at) / RFU RNFT2 (11725882_a_at) / Fold change /veh RNFT2 (11725882_a_at) / RFU NR4A2 (11747474_a_at) / Fold change /veh NR4A2 (11747474_a_at) / RFU ABCC12 (11746883_a_at) / Fold change /veh ABCC12 (11746883_a_at) / RFU TMEM136 (11760407_x_at) / Fold change /veh TMEM136 (11760407_x_at) / RFU CLDN22 /// WWC2 (11732394_at) / Fold change /veh CLDN22 /// WWC2 (11732394_at) / RFU HLA-DPB1 (11760878_x_at) / Fold change /veh HLA-DPB1 (11760878_x_at) / RFU SPINT1 (11716480_a_at) / Fold change /veh SPINT1 (11716480_a_at) / RFU GAP43 (11754022_s_at) / Fold change /veh GAP43 (11754022_s_at) / RFU A4GNT (11735810_at) / Fold change /veh A4GNT (11735810_at) / RFU PRB3 (11715151_x_at) / Fold change /veh PRB3 (11715151_x_at) / RFU TUBB4B (11761932_at) / Fold change /veh TUBB4B (11761932_at) / RFU CAPN14 (11732068_a_at) / Fold change /veh CAPN14 (11732068_a_at) / RFU TMCC2 (11721928_a_at) / Fold change /veh TMCC2 (11721928_a_at) / RFU IRGQ (11745062_a_at) / Fold change /veh IRGQ (11745062_a_at) / RFU FAM174B (11720279_a_at) / Fold change /veh FAM174B (11720279_a_at) / RFU TMPRSS4 (11748680_a_at) / Fold change /veh TMPRSS4 (11748680_a_at) / RFU FAM212B (11763350_a_at) / Fold change /veh FAM212B (11763350_a_at) / RFU PLEKHG5 (11743358_a_at) / Fold change /veh PLEKHG5 (11743358_a_at) / RFU ZSCAN30 (11745921_a_at) / Fold change /veh ZSCAN30 (11745921_a_at) / RFU CMKLR1 (11741424_a_at) / Fold change /veh CMKLR1 (11741424_a_at) / RFU LOC101060620 /// MAPK8IP1 (11723275_at) / Fold change /veh LOC101060620 /// MAPK8IP1 (11723275_at) / RFU SPTSSB (11747773_x_at) / Fold change /veh SPTSSB (11747773_x_at) / RFU PRSS12 (11739890_at) / Fold change /veh PRSS12 (11739890_at) / RFU BIN1 (11741810_x_at) / Fold change /veh BIN1 (11741810_x_at) / RFU WNT11 (11732464_a_at) / Fold change /veh WNT11 (11732464_a_at) / RFU C10orf10 (11716521_a_at) / Fold change /veh C10orf10 (11716521_a_at) / RFU C5orf56 (11738089_at) / Fold change /veh C5orf56 (11738089_at) / RFU CYB561 (11721691_x_at) / Fold change /veh CYB561 (11721691_x_at) / RFU ANKRD19P (11752326_a_at) / Fold change /veh ANKRD19P (11752326_a_at) / RFU OR2T12 /// OR2T33 /// OR2T8 (11738714_s_at) / Fold change /veh OR2T12 /// OR2T33 /// OR2T8 (11738714_s_at) / RFU VCAN (11748164_a_at) / Fold change /veh VCAN (11748164_a_at) / RFU JSRP1 (11732532_at) / Fold change /veh JSRP1 (11732532_at) / RFU KRTAP10-11 (11738290_x_at) / Fold change /veh KRTAP10-11 (11738290_x_at) / RFU MYO3A (11730013_a_at) / Fold change /veh MYO3A (11730013_a_at) / RFU EBF3 (11725865_a_at) / Fold change /veh EBF3 (11725865_a_at) / RFU CAMK2N1 (11719241_x_at) / Fold change /veh CAMK2N1 (11719241_x_at) / RFU C5orf56 (11738088_a_at) / Fold change /veh C5orf56 (11738088_a_at) / RFU OLFML3 (11715873_a_at) / Fold change /veh OLFML3 (11715873_a_at) / RFU LOC100653217 /// NTM (11731650_a_at) / Fold change /veh LOC100653217 /// NTM (11731650_a_at) / RFU MAPK11 (11762145_a_at) / Fold change /veh MAPK11 (11762145_a_at) / RFU FIZ1 (11724087_x_at) / Fold change /veh FIZ1 (11724087_x_at) / RFU OASL (11726364_x_at) / Fold change /veh OASL (11726364_x_at) / RFU SOX15 (11748057_x_at) / Fold change /veh SOX15 (11748057_x_at) / RFU CD79A (11719716_a_at) / Fold change /veh CD79A (11719716_a_at) / RFU HIST1H1D (11736915_at) / Fold change /veh HIST1H1D (11736915_at) / RFU CASKIN2 (11723855_a_at) / Fold change /veh CASKIN2 (11723855_a_at) / RFU LOC730098 (11760151_x_at) / Fold change /veh LOC730098 (11760151_x_at) / RFU OR4N2 (11742367_at) / Fold change /veh OR4N2 (11742367_at) / RFU PRRT2 (11749266_a_at) / Fold change /veh PRRT2 (11749266_a_at) / RFU SNX32 (11753110_a_at) / Fold change /veh SNX32 (11753110_a_at) / RFU CDHR5 (11726645_a_at) / Fold change /veh CDHR5 (11726645_a_at) / RFU RCAN1 (11760418_a_at) / Fold change /veh RCAN1 (11760418_a_at) / RFU FAM167A (11723789_a_at) / Fold change /veh FAM167A (11723789_a_at) / RFU FAM26E (11764081_at) / Fold change /veh FAM26E (11764081_at) / RFU ISYNA1 (11749810_s_at) / Fold change /veh ISYNA1 (11749810_s_at) / RFU ACY1 (11761880_at) / Fold change /veh ACY1 (11761880_at) / RFU 11764098_at / Fold change /veh 11764098_at / RFU SAMD14 (11745864_x_at) / Fold change /veh SAMD14 (11745864_x_at) / RFU NPB (11741838_a_at) / Fold change /veh NPB (11741838_a_at) / RFU TMPRSS6 (11731388_a_at) / Fold change /veh TMPRSS6 (11731388_a_at) / RFU KRTAP10-2 (11738614_at) / Fold change /veh KRTAP10-2 (11738614_at) / RFU ARHGAP8 /// PRR5-ARHGAP8 (11727945_x_at) / Fold change /veh ARHGAP8 /// PRR5-ARHGAP8 (11727945_x_at) / RFU KRTAP5-7 /// NADSYN1 (11734609_at) / Fold change /veh KRTAP5-7 /// NADSYN1 (11734609_at) / RFU RASL12 (11751679_a_at) / Fold change /veh RASL12 (11751679_a_at) / RFU CDKN2B (11736163_a_at) / Fold change /veh CDKN2B (11736163_a_at) / RFU PRF1 (11729649_at) / Fold change /veh PRF1 (11729649_at) / RFU, ZNF638 /// ZNF638-IT1 / Fold change vs veh, ZNF638 /// ZNF638-IT1 / RFU, PANK3 / Fold change vs veh, PANK3 / RFU, SH3YL1 / Fold change vs veh, SH3YL1 / RFU, ZEB2 / Fold change vs veh, ZEB2 / RFU, NRIP1 / Fold change vs veh, NRIP1 / RFU, PTTG1IP / Fold change vs veh, PTTG1IP / RFU, CAPN2 / Fold change vs veh, CAPN2 / RFU, MED14 / Fold change vs veh, MED14 / RFU, SNORA58 / Fold change vs veh, SNORA58 / RFU, C1orf63 / Fold change vs veh, C1orf63 / RFU, LRRFIP1 / Fold change vs veh, LRRFIP1 / RFU, NDUFAF7 / Fold change vs veh, NDUFAF7 / RFU, SLC12A2 / Fold change vs veh, SLC12A2 / RFU, IBTK / Fold change vs veh, IBTK / RFU, ESF1 / Fold change vs veh, ESF1 / Fold change vs veh, TMEM50B / RFU, TAOK1 / Fold change vs veh, TAOK1 / RFU, ACBD3 / Fold change vs veh, ACBD3 / RFU, TMA16 / Fold change vs veh, TMA16 / RFU, RWDD3 / Fold change vs veh, RWDD3 / RFU, BCAT1 / Fold change vs veh, BCAT1 / RFU, EDEM3 / Fold change vs veh, EDEM3 / RFU, TMEM33 / Fold change vs veh, TMEM33 / RFU, WDR75 / Fold change vs veh, WDR75 / RFU, AHCTF1 / Fold change vs veh, AHCTF1 / RFU, TFRC / Fold change vs veh, TFRC / RFU, ZDHHC17 / Fold change vs veh, ZDHHC17 / RFU, NOM1 / Fold change vs veh, NOM1 / RFU, ARL8B / Fold change vs veh, ARL8B / RFU, ZBTB11 / Fold change vs veh, ZBTB11 / RFU, TAMM41 / Fold change vs veh, TAMM41 / RFU, KIAA1704 /// LOC100996395 / Fold change vs veh, KIAA1704 /// LOC100996395 / RFU, ING1 / Fold change vs veh, ING1 / RFU, TRMT61B / Fold change vs veh, TRMT61B / RFU, FUBP3 / Fold change vs veh, FUBP3 / RFU, TP53 / Fold change vs veh, TP53 / RFU, TNKS2 / Fold change vs veh, TNKS2 / RFU, ZFP14 / Fold change vs veh, ZFP14 / RFU, ACTR2 / Fold change vs veh, ACTR2 / RFU, PPP3R1 / Fold change vs veh, PPP3R1 / RFU, PIK3R1 / Fold change vs veh, PIK3R1 / RFU, HNRNPA1 / Fold change vs veh, HNRNPA1 / RFU, RNF170 / Fold change vs veh, RNF170 / RFU, ZNF28 / Fold change vs veh, ZNF28 / RFU, RNGTT / Fold change vs veh, RNGTT / RFU, OGT / Fold change vs veh, OGT / RFU, BRD1 / Fold change vs veh, BRD1 / RFU, MARS / Fold change vs veh, MARS / RFU, ZNF655 / Fold change vs veh, ZNF655 / RFU, FAHD1 / Fold change vs veh, FAHD1 / RFU, BDP1 / Fold change vs veh, BDP1 / RFU, LRRCC1 / Fold change vs veh, LRRCC1 / RFU, ARID1A / Fold change vs veh, ARID1A / RFU, ZNF146 / Fold change vs veh, ZNF146 / RFU, ZNF330 / Fold change vs veh, ZNF330 / RFU, GPN3 / Fold change vs veh, GPN3 / RFU, C9orf123 / Fold change vs veh, C9orf123 / RFU, N4BP2L2 / Fold change vs veh, N4BP2L2 / RFU, ARFIP1 / Fold change vs veh, ARFIP1 / RFU, FAM179B / Fold change vs veh, FAM179B / RFU, BCL10 / Fold change vs veh, BCL10 / RFU, UHRF1BP1L / Fold change vs veh, UHRF1BP1L / RFU, BET1 / Fold change vs veh, BET1 / RFU, CNOT2 / Fold change vs veh, CNOT2 / RFU, ZNF268 / Fold change vs veh, ZNF268 / Fold change vs veh, ZNF507 / RFU, DGCR2 / Fold change vs veh, DGCR2 / RFU, WDSUB1 / Fold change vs veh, WDSUB1 / Fold change vs veh, HSP90B1 /// MIR3652 / RFU, ADSS / Fold change vs veh, ADSS / RFU, GK / Fold change vs veh, GK / RFU, ZNF148 / Fold change vs veh, ZNF148 / RFU, TAF9 / Fold change vs veh, TAF9 / RFU, SLC1A5 / Fold change vs veh, SLC1A5 / RFU, SLMO2 / Fold change vs veh, SLMO2 / RFU, ABCC4 / Fold change vs veh, ABCC4 / RFU, LOC101060439 /// RAP1B / Fold change vs veh, LOC101060439 /// RAP1B / RFU, RFX7 / Fold change vs veh, RFX7 / RFU, GTPBP10 / Fold change vs veh, GTPBP10 / RFU, CNEP1R1 / Fold change vs veh, CNEP1R1 / RFU, BIVM-ERCC5 /// ERCC5 / Fold change vs veh, BIVM-ERCC5 /// ERCC5 / RFU, ILF3 / Fold change vs veh, ILF3 / RFU 11762660_at / Fold change /veh 11762660_at / RFU VCAN (11757783_s_at) / Fold change /veh VCAN (11757783_s_at) / RFU DDX43 (11728927_at) / Fold change /veh DDX43 (11728927_at) / RFU KRT8 (11758188_x_at) / Fold change /veh KRT8 (11758188_x_at) / RFU NKD1 (11759106_at) / Fold change /veh NKD1 (11759106_at) / RFU SRD5A1 (11742802_a_at) / Fold change /veh SRD5A1 (11742802_a_at) / RFU TPSAB1 /// TPSB2 (11721975_s_at) / Fold change /veh TPSAB1 /// TPSB2 (11721975_s_at) / RFU GSTM3 (11746129_a_at) / Fold change /veh GSTM3 (11746129_a_at) / RFU IL23R (11737362_x_at) / Fold change /veh IL23R (11737362_x_at) / RFU TMEM51 (11727254_a_at) / Fold change /veh TMEM51 (11727254_a_at) / RFU PIWIL2 (11732686_x_at) / Fold change /veh PIWIL2 (11732686_x_at) / RFU ORM1 (11744905_x_at) / Fold change /veh ORM1 (11744905_x_at) / RFU CCDC152 (11743942_at) / Fold change /veh CCDC152 (11743942_at) / RFU ECM1 (11717891_a_at) / Fold change /veh ECM1 (11717891_a_at) / RFU IL23R (11748794_a_at) / Fold change /veh IL23R (11748794_a_at) / RFU TNFAIP8L3 (11732012_x_at) / Fold change /veh TNFAIP8L3 (11732012_x_at) / RFU MBOAT4 (11741988_at) / Fold change /veh MBOAT4 (11741988_at) / RFU 11764193_at / Fold change /veh 11764193_at / RFU TMEM53 (11763286_at) / Fold change /veh TMEM53 (11763286_at) / RFU MAGEB2 (11727129_at) / Fold change /veh MAGEB2 (11727129_at) / RFU TMEM200A (11744735_a_at) / Fold change /veh TMEM200A (11744735_a_at) / RFU CCDC152 (11751479_a_at) / Fold change /veh CCDC152 (11751479_a_at) / RFU FAM211A (11726209_a_at) / Fold change /veh FAM211A (11726209_a_at) / RFU RGS16 (11746705_a_at) / Fold change /veh RGS16 (11746705_a_at) / RFU VCAN (11755009_s_at) / Fold change /veh VCAN (11755009_s_at) / RFU RHOB (11743442_s_at) / Fold change /veh RHOB (11743442_s_at) / RFU RGS16 (11720943_a_at) / Fold change /veh RGS16 (11720943_a_at) / RFU RGS16 (11720944_at) / Fold change /veh RGS16 (11720944_at) / RFU, VPS4B / Fold change vs veh, VPS4B / RFU, CREB1 / Fold change vs veh, CREB1 / RFU, DNAJC13 / Fold change vs veh, DNAJC13 / RFU, GNAQ / Fold change vs veh, GNAQ / RFU, CDK5R1 / Fold change vs veh, CDK5R1 / RFU, ZRANB3 / Fold change vs veh, ZRANB3 / RFU, CUL4A / Fold change vs veh, CUL4A / RFU, CCNY / Fold change vs veh, CCNY / RFU, UFL1 / Fold change vs veh, UFL1 / RFU, COG3 / Fold change vs veh, COG3 / RFU, DIAPH2 / Fold change vs veh, DIAPH2 / RFU, SKA2 / Fold change vs veh, SKA2 / RFU, AFF3 / Fold change vs veh, AFF3 / RFU, LMF1 / Fold change vs veh, LMF1 / RFU, IPO11 / Fold change vs veh, IPO11 / RFU, DFFB / Fold change vs veh, DFFB / RFU, FOXP1 / Fold change vs veh, FOXP1 / RFU, CARD8 / Fold change vs veh, CARD8 / RFU, STRN3 / Fold change vs veh, STRN3 / RFU, ADK / Fold change vs veh, ADK / RFU, RASSF2 / Fold change vs veh, RASSF2 / RFU, WIPF1 / Fold change vs veh, WIPF1 / RFU, LARP1B / Fold change vs veh, LARP1B / RFU, RASA1 / Fold change vs veh, RASA1 / RFU, RB1 / Fold change vs veh, RB1 / RFU, PPFIA1 / Fold change vs veh, PPFIA1 / RFU, MAT2A / Fold change vs veh, MAT2A / RFU, CCT5 / Fold change vs veh, CCT5 / RFU, WDR92 / Fold change vs veh, WDR92 / RFU, CUX1 / Fold change vs veh, CUX1 / RFU, TTC7A / Fold change vs veh, TTC7A / RFU, TMEM135 / Fold change vs veh, TMEM135 / RFU, DEPTOR / Fold change vs veh, DEPTOR / RFU, CPM / Fold change vs veh, CPM / RFU, DNAJB6 / Fold change vs veh, DNAJB6 / RFU, CACNA2D3 / Fold change vs veh, CACNA2D3 / RFU, DTX4 / Fold change vs veh, DTX4 / RFU, TFCP2 / Fold change vs veh, TFCP2 / RFU, GMCL1 /// GMCL1P1 / Fold change vs veh, GMCL1 /// GMCL1P1 / RFU, AEBP2 / Fold change vs veh, AEBP2 / RFU, SNHG1 /// SNORD22 /// SNORD25 /// SNORD26 /// SNORD27 /// SNORD28 /// SNORD29 /// SNORD31 / Fold change vs veh, SNHG1 /// SNORD22 /// SNORD25 /// SNORD26 /// SNORD27 /// SNORD28 /// SNORD29 /// SNORD31 / Fold change (Aza/veh), C12orf56 (ProbeSet 11735607_a_at) / Fold change (ACY-1035/veh), C12orf56 (ProbeSet 11735607_a_at) / Fold change (Aza/veh), FGFR1OP (ProbeSet 11751329_s_at) / Fold change (ACY-1035/veh), FGFR1OP (ProbeSet 11751329_s_at) / Fold change (Aza/veh), VPS36 (ProbeSet 11739960_a_at) / Fold change (ACY-1035/veh), VPS36 (ProbeSet 11739960_a_at) / RFU SYPL1 (11715823_x_at) / Fold change /veh SYPL1 (11715823_x_at) / RFU IGFBP7 (11715501_s_at) / Fold change /veh IGFBP7 (11715501_s_at) / RFU REEP3 (11722064_at) / Fold change /veh REEP3 (11722064_at) / RFU IGLL1 (11728026_x_at) / Fold change /veh IGLL1 (11728026_x_at): dose or concentration left out as unconfirmed
Conditions: MV-4-11 cells, 48 hours

With `Nc1ccc(-c2cccs2)cc1NC(=O)c1ccc2c(c1)cc(C1CC1)n2CCN1CCOCC1` [ACY-1035] the “RFU VCAN (11748164_a_at)” value was 5.33 RFU.
